Tests used:
Format in all cases: in vivo
Other insects = test: Field trap catch of other insects (selectivity)
Procedure: (§1) On the top inside of the bottle, 2 cm below the cap 17, a 10 ml 'micro' glass vial 19 was installed. In this small container, 0.1 ml of an attractive compound 20 was deposited. In the bottom of the 500 ml bottle, 200 ml of water with liquid household detergent 22 was placed. The traps 10 or containers with the attractant 20, were placed randomly in different species of trees, mostly 'thorns,' Acacia […] Tebo, […] Lo Orozco, and apple trees in Casablanca (Chile), each hung from a wire 24, at a height of about 11⁄2 m from the ground, with a separation between them of about 10 m. […] The traps 10 were placed in Catapilco in the […] farm the 19th of February 2007, in the geographical locations of 33° 37' 06'' S. and 71° 19' 14'' O, for the Campo Lindo farm in Casablanca in 33° 14' 23'' S. and 71° 17' 37'' O on the 20th of February 2007 and Lo Orozco in 33° 13'26'' S. and 71° 24' 04'' O the 9th of April 2007. […] In the extent it was necessary the containers were filled up with water and detergent.

Vespula germanica = test: Field trap catch of yellow jacket wasps with attractant
Procedure: as §1

Polistes = test: Field trap catch of Polistes (selectivity); conditions: Lo Orozco; 21 days; five containers per attractant
Procedure: (§2) On the top inside of the bottle, 2 cm below the cap 17, a 10 ml 'micro' glass vial 19 was installed. In this small container, 0.1 ml of an attractive compound 20 was deposited. In the bottom of the 500 ml bottle, 200 ml of water with liquid household detergent 22 was placed. The traps 10 or containers with the attractant 20, were placed randomly in different species of trees, mostly 'thorns,' Acacia […] Tebo, […] Lo Orozco, and apple trees in Casablanca (Chile), each hung from a wire 24, at a height of about 11⁄2 m from the ground, with a separation between them of about 10 m. Two replications were used per each attractant in Catapilco, and five replications in Lo Orozco and Casablanca. The traps 10 were placed in Catapilco in the […] farm the 19th of February 2007, in the geographical locations of 33° 37' 06'' S. and 71° 19' 14'' O, for the Campo Lindo farm in Casablanca in 33° 14' 23'' S. and 71° 17' 37'' O on the 20th of February 2007 and Lo Orozco in 33° 13'26'' S. and 71° 24' 04'' O the 9th of April 2007. […] In the extent it was necessary the containers were filled up with water and detergent.

Bees = test: Field trap catch of bees (selectivity); conditions: Lo Orozco; 21 days; five containers per attractant
Procedure: as §2

[1] = Campo Lindo farm, Casablanca, 18 days, two containers per attractant, 0.1 ml
[2] = Manantiales farm, Catapilco, 17 days, two containers per attractant, 0.1 ml
[3] = Lo Orozco, 21 days, five containers per attractant

CCCCCCCCCCCCO [1-Dodecanol]
Total number of other insects captured (Other insects; [1]): 1 Sirfid
Total number of other insects captured (Other insects; [2]): 0
Total number of V. germanica workers captured (Vespula germanica; [1]): 102
Total number of V. germanica workers captured (Vespula germanica; [2]): 0

CCCCCC(C)=O [2-Heptanone]
Total number of other insects captured (Other insects; [1]): 0
Total number of other insects captured (Other insects; [2]): 0
Total number of V. germanica workers captured (Vespula germanica; [1]): 92
Total number of V. germanica workers captured (Vespula germanica; [2]): 69

CCCCCCCC(C)=O [2-Nonanone]
Total number of other insects captured (Other insects; [1]): 0
Total number of other insects captured (Other insects; [2]): 0
Total number of V. germanica workers captured (Vespula germanica; [1]): 178
Total number of V. germanica workers captured (Vespula germanica; [2]): 0

CCCCCCC(C)=O [2-Octanone]
Total number of other insects captured (Other insects; [1]): 1 Moth
Total number of other insects captured (Other insects; [3]): 0
Total number of other insects captured (Other insects; [2]): 0
Total number of V. germanica workers captured (Vespula germanica; [1]): 209
Attraction compared with the standard mixture of acetic acid with isobutanol (Vespula germanica; Lo Orozco field tests): superior
Total number of V. germanica workers captured (Vespula germanica; [3]): 2.673
Total number of V. germanica workers captured (Vespula germanica; [2]): 416
Total number of Polistes captured (Polistes): 1
Total number of Bees captured (Bees): 0

CCCCCC(=O)CC [3-Octanone]
Total number of other insects captured (Other insects; [1]): 0
Total number of other insects captured (Other insects; [3]): 0
Total number of V. germanica workers captured (Vespula germanica; [1]): 218
Total number of V. germanica workers captured (Vespula germanica; [3]): 892
Total number of V. germanica workers captured (Vespula germanica; [2]): 356
Total number of Polistes captured (Polistes): 0
Total number of Bees captured (Bees): 0

CCCCCCC=O [Heptaldehyde]
Total number of other insects captured (Other insects; [1]): 0
Total number of other insects captured (Other insects; [2]): 0
Total number of V. germanica workers captured (Vespula germanica; [1]): 129
Total number of V. germanica workers captured (Vespula germanica; [2]): 9

CCCCCCCCC=O [Nonyl aldehyde]
Total number of other insects captured (Other insects; [1]): 0
Total number of other insects captured (Other insects; [2]): 3 Bees
Total number of V. germanica workers captured (Vespula germanica; [1]): 97
Total number of V. germanica workers captured (Vespula germanica; [2]): 1

CCCCCCCC=O [Octyl aldehyde]
Total number of other insects captured (Other insects; [1]): 0
Total number of other insects captured (Other insects; [2]): 0
Total number of V. germanica workers captured (Vespula germanica; [1]): 101
Total number of V. germanica workers captured (Vespula germanica; [2]): 3

CCCCC/C=C/C=C/C=O [Trans,trans-2,4-decadienal]
Total number of other insects captured (Other insects; [1]): 0
Total number of other insects captured (Other insects; [2]): 0
Total number of V. germanica workers captured (Vespula germanica; [1]): 5
Total number of V. germanica workers captured (Vespula germanica; [2]): 84

CCCC/C=C/C=C/C=O [Trans,trans-2,4-nonadienal]
Total number of other insects captured (Other insects; [1]): 0
Total number of other insects captured (Other insects; [2]): 0
Total number of V. germanica workers captured (Vespula germanica; [1]): 218
Total number of V. germanica workers captured (Vespula germanica; [2]): 0

CCCC/C=C/C=O [Trans-2-heptenal]
Total number of other insects captured (Other insects; [1]): 0
Total number of other insects captured (Other insects; [3]): 0
Total number of other insects captured (Other insects; [2]): 0
Total number of V. germanica workers captured (Vespula germanica; [1]): 252
Total number of V. germanica workers captured (Vespula germanica; [3]): 999
Total number of V. germanica workers captured (Vespula germanica; [2]): 407
Total number of Polistes captured (Polistes): 0
Total number of Bees captured (Bees): 0

CCCCC/C=C/CO [Trans-2-octen-1-ol]
Total number of other insects captured (Other insects; [1]): 0
Total number of other insects captured (Other insects; [3]): 0
Total number of other insects captured (Other insects; [2]): 1 Bee
Total number of V. germanica workers captured (Vespula germanica; [1]): 297
Total number of V. germanica workers captured (Vespula germanica; [2]): 474
Total number of Polistes captured (Polistes): 1
Total number of Bees captured (Bees): 2

CCCCC=O [Valeraldehyde]
Total number of other insects captured (Other insects; [1]): 0
Total number of other insects captured (Other insects; [2]): 0
Total number of V. germanica workers captured (Vespula germanica; [1]): 84
Total number of V. germanica workers captured (Vespula germanica; [2]): 24

— patent US20130129667A1, “Attractant compounds for yellow jacket wasps” (priority 2007, published 2013)
